According to article PMC7592892, “Anemarsaponin BII inhibits the activity of CYP3A4, 2D6, and 2E1 with human liver microsomes” (Pharmaceutical Biology, 2020):

What was measured:
[1] = target: T1, CYP2D6 (Homo sapiens, UniProt P10635); experiment: Time-dependent inhibition of CYP2D6 in HLMs; format: in vitro ADME; conditions: 20 μM anemarsaponin BII, data not shown
T1 construct: marker reactions with specific substrates in human liver microsomes (HLMs); from tissue; host or cells: pooled human liver microsomes
Protocol: (§1) The effect of incubation time on the inhibition of anemarsaponin BII was evaluated with 20 μM anemarsaponin BII. HLMs were preincubated with anemarsaponin BII and the NADPH-generating system for 30 min at 37 °C. Then, an aliquot (20 μL) was transferred to another incubation tube (final volume 200 μL) containing an NADPH-generating system and probe substrates, of which final concentrations were approximate to Km. After incubating for 0, 5, 10, 15 and 30 min, the reaction was terminated with 100 μL acetonitrile internal standard mix and placed on ice. The metabolites were analyzed by HPLC. To obtain the values of KI and Kinact, another incubation with a higher concentration of substrates (approximately 4-fold Km values) was performed in the presence of 0–50 μM anemarsaponin BII for 0, 5, 10, 15 and 30 min.

[2] = rat, in vivo, 171.61 mg/kg; cited from earlier work
[3] = target: T2, CYP3A4 (Homo sapiens, UniProt P08684); experiment: Time-dependent inhibition of CYP3A4 in HLMs; format: in vitro ADME
T2 construct: marker reactions with specific substrates in human liver microsomes (HLMs); from tissue; host or cells: pooled human liver microsomes
Protocol: as §1

[4] = target: T3, CYP2E1 (Homo sapiens, UniProt P05181); experiment: Time-dependent inhibition of CYP2E1 in HLMs; format: in vitro ADME; conditions: 20 μM anemarsaponin BII, data not shown
T3 construct: marker reactions with specific substrates in human liver microsomes (HLMs); from tissue; host or cells: pooled human liver microsomes
Protocol: as §1

[5] = tested on: T4, CYP2A6; format: in vitro ADME; conditions: human, microsomes, 100 μM, pH 7.4
T4 construct: marker reactions with specific substrates in human liver microsomes (HLMs); from tissue; host or cells: pooled human liver microsomes
Protocol: (§2) The activity of CYP450s was evaluated by the marker reactions with specific substrates in human liver microsomes (HLMs). The reaction conditions are summarized in Table 1 according to previous studies. The concentration of anemarsaponin BII was 100 μM with the following concentration of specific inhibitors: 10 μM furafylline for CYP1A2, 10 μM tranylcypromine for CYP2A6, 1 μM ketoconazole for CYP3A4, 5 μM montelukast for CYP2C8, 10 μM sulfaphenazole for CYP2C9, 50 μM tranylcypromine for CYP2C19, 10 μM quinidine for CYP2D6, 50 μM clomethiazole for CYP2E1. 200 μL incubation system included 100 mM potassium phosphate buffer (pH 7.4), NADPH generating system (1 mM NADP^+, 10 mM glucose-6-phosphate, 1 U/mL of glucose-6-phosphate dehydrogenase, and 4 mM MgCl2), the appropriate concentration of HLMs, a corresponding probe substrate and anemarsaponin BII (or positive inhibitor for different probe reactions). The HADPH-generating system was added before the incubation to preincubate for 3 min at 37 °C. The reaction was terminated with 100 μL acetonitrile (10% trichloroacetic acid for CYP2A6). Then, the mixture was centrifuged at 12,000 rpm for 10 min, and an aliquot (50 μL) of supernatant was transferred for HPLC analysis with the help of the Agilent 1260 series instrument with DAD and FLD detector according to previous studies. The HPLC conditions for analysis of corresponding metabolites of CYP isoforms are summarized in Table 2 based on previous studies (Lang et al. [2017]; Zhang et al. [2017]). Incubations were performed in triplicate, and results were represented with the mean value. The final microsomal protein concentration and incubation times for the different probe reactions are summarized in Table 1 based on previous studies (Lang et al. [2017]; Wang et al. [2019]). The effect of anemarsaponin BII on the activity of CYPs was evaluated in pooled human liver microsomes according to previous studies (Dong et al. [2018]; Wang et al. [2019]). The residual activity of eight CYP isoforms was first detected with 100 μM anemarsaponin BII in HLMs. Next, CYPs of which the activity was inhibited by anemarsaponin BII was incubated with 0, 2.5, 5, 10, 25, 50 and 100 μM anemarsaponin BII to explore the values of half inhibition concentration (IC50). Additionally, 0–50 μM anemarsaponin BII was incubated with various concentration of probe substrates (20–100 μM testosterone for CYP3A4, 10–50 μM dextromethorphan for CYP2D6, and 25–250 μM chlorzoxazone for CYP2E1) to obtain the values of KI.

[6] = tested on: T5, CYP2C19; format: in vitro ADME; conditions: human, microsomes, 100 μM, pH 7.4
T5 construct: marker reactions with specific substrates in human liver microsomes (HLMs); from tissue; host or cells: pooled human liver microsomes
Protocol: as §2

[7] = tested on: T6, CYP2C8; format: in vitro ADME; conditions: human, microsomes, 100 μM, pH 7.4
T6 construct: marker reactions with specific substrates in human liver microsomes (HLMs); from tissue; host or cells: pooled human liver microsomes
Protocol: as §2

[8] = tested on: T7, CYP1A2; format: in vitro ADME; conditions: human, microsomes, 100 μM, pH 7.4
T7 construct: marker reactions with specific substrates in human liver microsomes (HLMs); from tissue; host or cells: pooled human liver microsomes
Protocol: as §2

[9] = tested on: T8, CYP2C9; format: in vitro ADME; conditions: human, microsomes, 100 μM, pH 7.4
T8 construct: marker reactions with specific substrates in human liver microsomes (HLMs); from tissue; host or cells: pooled human liver microsomes
Protocol: as §2

[10] = target: T1, CYP2D6; experiment: CYP2D6 inhibition in pooled human liver microsomes (dextromethorphan O-demethylation); format: in vitro ADME
Protocol: (§3) The activity of CYP450s was evaluated by the marker reactions with specific substrates in human liver microsomes (HLMs). The reaction conditions are summarized in Table 1 according to previous studies. The concentration of anemarsaponin BII was 100 μM with the following concentration of specific inhibitors: 10 μM furafylline for CYP1A2, 10 μM tranylcypromine for CYP2A6, 1 μM ketoconazole for CYP3A4, 5 μM montelukast for CYP2C8, 10 μM sulfaphenazole for CYP2C9, 50 μM tranylcypromine for CYP2C19, 10 μM quinidine for CYP2D6, 50 μM clomethiazole for CYP2E1. 200 μL incubation system included 100 mM potassium phosphate buffer (pH 7.4), NADPH generating system (1 mM NADP^+, 10 mM glucose-6-phosphate, 1 U/mL of glucose-6-phosphate dehydrogenase, and 4 mM MgCl2), the appropriate concentration of HLMs, a corresponding probe substrate and anemarsaponin BII (or positive inhibitor for different probe reactions). The HADPH-generating system was added before the incubation to preincubate for 3 min at 37 °C. The reaction was terminated with 100 μL acetonitrile (10% trichloroacetic acid for CYP2A6). Then, the mixture was centrifuged at 12,000 rpm for 10 min, and an aliquot (50 μL) of supernatant was transferred for HPLC analysis with the help of the Agilent 1260 series instrument with DAD and FLD detector according to previous studies. The HPLC conditions for analysis of corresponding metabolites of CYP isoforms are summarized in Table 2 based on previous studies (Lang et al. [2017]; Zhang et al. [2017]).
(§4) Incubations were performed in triplicate, and results were represented with the mean value. […]
(§5) The effect of anemarsaponin BII on the activity of CYPs was evaluated in pooled human liver microsomes according to previous studies (Dong et al. [2018]; Wang et al. [2019]). The residual activity of eight CYP isoforms was first detected with 100 μM anemarsaponin BII in HLMs. […]
(§6) The enzyme kinetic parameters for the probe reaction were estimated from the best fit line, using least-squares linear regression of the inverse substrate concentration versus the inverse velocity (Lineweaver–Burk plots), and the mean values were used to calculate Vmax and Km. Inhibition data from the experiments that were conducted using multiple compound concentrations were represented by Dixon plots, and inhibition constant (KI) values were calculated using non-linear regression according to the following equation: Competitive inhibition:v=(VmaxS)/(Km(1+I/KI)+S), Non-competitive inhibition:v=(VmaxS)/[Km+S(1+I/KIKi)] where I is the concentration of the compound, KI is the inhibition constant, S is the concentration of the substrate, and Km is the substrate concentration at half the maximum velocity (Vmax) of the reaction. […]

[11] = target: T2, CYP3A4; experiment: CYP3A4 inhibition in pooled human liver microsomes (testosterone 6β-hydroxylation); format: in vitro ADME
Protocol: as §3, §4, §5, §6

[12] = target: T3, CYP2E1; experiment: CYP2E1 inhibition in pooled human liver microsomes (chlorzoxazone 6-hydroxylation); format: in vitro ADME; conditions: for IC50: 0-100 μM anemarsaponin BII
Protocol: as §3
Incubations were performed in triplicate, and results were represented with the mean value. The final microsomal protein concentration and incubation times for the different probe reactions are summarized in Table 1 based on previous studies (Lang et al. [2017]; Wang et al. [2019]).
The effect of anemarsaponin BII on the activity of CYPs was evaluated in pooled human liver microsomes according to previous studies (Dong et al. [2018]; Wang et al. [2019]). The residual activity of eight CYP isoforms was first detected with 100 μM anemarsaponin BII in HLMs. Next, CYPs of which the activity was inhibited by anemarsaponin BII was incubated with 0, 2.5, 5, 10, 25, 50 and 100 μM anemarsaponin BII to explore the values of half inhibition concentration (IC50). Additionally, 0–50 μM anemarsaponin BII was incubated with various concentration of probe substrates (20–100 μM testosterone for CYP3A4, 10–50 μM dextromethorphan for CYP2D6, and 25–250 μM chlorzoxazone for CYP2E1) to obtain the values of KI.
as §6, with “reaction. The mechanism of the inhibition was inspected using the Lineweaver–Burk plots and the enzyme inhibition models.” for “reaction.”

[13] = rat, in vivo; cited from earlier work
[14] = 100 μM anemarsaponin BII, residual activity
[15] = HLMs, 0-100 μM anemarsaponin BII

T3 sequence (P05181 whole entry): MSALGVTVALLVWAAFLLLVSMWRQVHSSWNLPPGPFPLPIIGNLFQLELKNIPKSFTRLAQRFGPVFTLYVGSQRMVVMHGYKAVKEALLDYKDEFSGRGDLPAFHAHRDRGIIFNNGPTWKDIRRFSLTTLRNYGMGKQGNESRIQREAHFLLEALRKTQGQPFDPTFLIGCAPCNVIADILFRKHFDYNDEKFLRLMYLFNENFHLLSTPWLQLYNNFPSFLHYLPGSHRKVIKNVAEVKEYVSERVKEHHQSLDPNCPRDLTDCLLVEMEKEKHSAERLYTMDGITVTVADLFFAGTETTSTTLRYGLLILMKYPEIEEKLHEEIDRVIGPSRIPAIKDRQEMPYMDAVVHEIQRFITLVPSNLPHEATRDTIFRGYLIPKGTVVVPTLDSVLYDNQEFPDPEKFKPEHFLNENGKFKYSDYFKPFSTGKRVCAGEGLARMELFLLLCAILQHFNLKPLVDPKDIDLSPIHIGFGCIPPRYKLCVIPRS
T2 sequence (P08684 whole entry): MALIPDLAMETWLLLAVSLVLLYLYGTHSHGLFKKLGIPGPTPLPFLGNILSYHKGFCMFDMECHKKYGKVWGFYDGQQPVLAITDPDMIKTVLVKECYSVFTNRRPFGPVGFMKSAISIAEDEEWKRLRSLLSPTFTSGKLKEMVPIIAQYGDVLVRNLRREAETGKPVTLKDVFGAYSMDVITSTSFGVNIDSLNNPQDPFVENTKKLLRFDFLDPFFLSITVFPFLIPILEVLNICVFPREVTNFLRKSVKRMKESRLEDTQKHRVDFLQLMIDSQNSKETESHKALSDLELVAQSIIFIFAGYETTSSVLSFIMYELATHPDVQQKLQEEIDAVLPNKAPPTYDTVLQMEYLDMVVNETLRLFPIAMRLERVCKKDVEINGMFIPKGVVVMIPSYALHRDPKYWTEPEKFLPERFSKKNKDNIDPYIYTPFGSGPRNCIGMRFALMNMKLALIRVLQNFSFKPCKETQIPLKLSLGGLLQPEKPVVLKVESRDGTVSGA
T1 sequence (P10635 whole entry): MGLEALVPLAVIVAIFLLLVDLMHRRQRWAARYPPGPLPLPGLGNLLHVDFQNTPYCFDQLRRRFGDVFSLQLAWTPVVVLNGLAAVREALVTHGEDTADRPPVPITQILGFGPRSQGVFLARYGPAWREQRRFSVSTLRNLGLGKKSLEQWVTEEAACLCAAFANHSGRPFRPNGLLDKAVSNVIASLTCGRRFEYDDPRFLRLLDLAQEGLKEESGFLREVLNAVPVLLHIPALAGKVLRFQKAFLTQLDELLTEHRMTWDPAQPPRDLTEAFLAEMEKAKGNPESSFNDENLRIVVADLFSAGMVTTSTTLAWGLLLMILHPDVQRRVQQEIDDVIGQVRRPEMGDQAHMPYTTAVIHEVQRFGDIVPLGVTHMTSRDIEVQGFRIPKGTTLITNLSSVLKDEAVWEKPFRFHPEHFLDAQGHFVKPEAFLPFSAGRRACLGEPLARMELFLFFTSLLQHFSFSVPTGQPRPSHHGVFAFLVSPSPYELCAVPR

Compound: CC(CCC1(O)OC2CC3C4CCC5CC(OC6OC(CO)C(O)C(O)C6OC6OC(CO)C(O)C(O)C6O)CCC5(C)C4CCC3(C)C2C1C)COC1OC(CO)C(O)C(O)C1O (stereo not shown) [anemarsaponin BII, Anemarsaponin BII]
- effect of incubation time on inhibition of CYP2D6 [1]: not affected by the incubation time
- Cmax [2]: 271.22 ng/mL
- t1/2 [2]: 3.21 h
- effect of incubation time on inhibition of CYP3A4 ([3]; 20 μM anemarsaponin BII): increased with the incubation time
- kinact ([3]; human, human liver microsomes, NADPH, 0–50 μM anemarsaponin BII, 0-30 min, non-linear regression): 0.000883 s⁻¹
- effect of incubation time on inhibition of CYP2E1 [4]: not affected by the incubation time
- effect on activity of CYP2A6 [5]: only the activity of CYP3A4, 2D6 and 2E1 was significantly inhibited
- effect on activity of CYP2C19 [6]: only the activity of CYP3A4, 2D6 and 2E1 was significantly inhibited
- effect on activity of CYP2C8 [7]: only the activity of CYP3A4, 2D6 and 2E1 was significantly inhibited
- effect on activity of CYP1A2 [8]: only the activity of CYP3A4, 2D6 and 2E1 was significantly inhibited
- effect on activity of CYP2C9 [9]: only the activity of CYP3A4, 2D6 and 2E1 was significantly inhibited
- activity of CYP2D6 decreased to (relative to untreated HLMs) [10, 14]: 18.79%
- inhibition model CYP2D6 (Lineweaver–Burk) ([10]; HLMs): competitive
- IC50 [10, 15]: 16.3 µM
- Ki ([10]; HLMs, 10–50 μM dextromethorphan, competitive model): 8.26 µM
- activity of CYP3A4 decreased to (relative to untreated HLMs) [11, 14]: 15.65%
- inhibition model CYP3A4 (Lineweaver–Burk) ([11]; HLMs): non-competitive
- IC50 [11, 15]: 13.7 µM
- Ki ([11]; HLMs, 20–100 μM testosterone, non-competitive model): 6.72 µM
- activity of CYP2E1 decreased to (relative to untreated HLMs) [12, 14]: 23.45%
- inhibition model CYP2E1 (Lineweaver–Burk) ([12]; HLMs): competitive
- IC50 ([12]; HLMs): 19.7 µM
- Ki ([12]; HLMs, 25–250 μM chlorzoxazone, competitive model): 9.82 µM
- IC50 ([12]; human, pooled human liver microsomes, pH 7.4, probe chlorzoxazone (6-hydroxylation), HLMs): 19.3 µM
- half-life (t1/2) [13]: 2.7 h
